Data taken from publication PMC9972953, “Thermophilic Carboxylesterases from Hydrothermal Vents of the Volcanic Island of Ischia Active on Synthetic and Biobased Polymers and Mycotoxins” (Applied and Environmental Microbiology, 2023).

Legend:
Format in all cases: biochemical, uncultured Chloroflexota bacterium
Conditions in all cases: pH 9.0, 30°C
[1] = tested on: T1, IS12; assay: spectrophotometric release of p-nitrophenol, […] nm
T1 construct: N-terminal 6xHis tag (pET-46 Ek/LIC), E. coli BL21(DE3); dimer in solution

[2] = tested on: T2, IS10; assay: spectrophotometric release of p-nitrophenol, […] nm
T2 construct: N-terminal 6xHis tag (pET-46 Ek/LIC), E. coli BL21(DE3); dimer in solution

[3] = tested on: T2, IS10; assay: spectrophotometric release of α-naphthol, […] nm
[4] = tested on: T1, IS12; assay: spectrophotometric release of α-naphthol, […] nm

SMILES | Km [1] | Km [2] | KM [3] | Km [4] | Km [3]
CC(=O)Oc1ccc([N+](=O)[O-])cc1 [pNP-acetate] | 220 ± 50 µM | 50 ± 10 µM | – | – | –
CCCC(=O)Oc1ccc([N+](=O)[O-])cc1 [pNP-butyrate] | 80 ± 10 µM | 60 ± 10 µM | – | – | –
CCCCCC(=O)Oc1ccc([N+](=O)[O-])cc1 [pNP-hexanoate] | 90 ± 10 µM | 40 ± 10 µM | – | – | –
CCCC(=O)Oc1cccc2ccccc12 [αN-butyrate] | – | – | 120 ± 40 µM | – | –
CCC(=O)Oc1cccc2ccccc12 [αN-propionate] | – | – | – | 690 ± 190 µM | 60 ± 20 µM
